Test results: article PMC9403976, “Elucidating the path to Plasmodium prolyl-tRNA synthetase inhibitors that overcome halofuginone resistance” (Nature Communications, 2022)
Where “and” joins values, the source holds several entries; their conditions need not be identical. Equal values may be shown once. Read-outs that look alike come from different tables or passages of the source.

Legend:
PfcProRS = target: T1, PfcProRS (Plasmodium falciparum, UniProt Q8I5R7); assay type: binding; settings: single replicates
T1 construct: made in house; host or cells: E. coli SoluBL-21
T1 sequence (Q8I5R7 249-746): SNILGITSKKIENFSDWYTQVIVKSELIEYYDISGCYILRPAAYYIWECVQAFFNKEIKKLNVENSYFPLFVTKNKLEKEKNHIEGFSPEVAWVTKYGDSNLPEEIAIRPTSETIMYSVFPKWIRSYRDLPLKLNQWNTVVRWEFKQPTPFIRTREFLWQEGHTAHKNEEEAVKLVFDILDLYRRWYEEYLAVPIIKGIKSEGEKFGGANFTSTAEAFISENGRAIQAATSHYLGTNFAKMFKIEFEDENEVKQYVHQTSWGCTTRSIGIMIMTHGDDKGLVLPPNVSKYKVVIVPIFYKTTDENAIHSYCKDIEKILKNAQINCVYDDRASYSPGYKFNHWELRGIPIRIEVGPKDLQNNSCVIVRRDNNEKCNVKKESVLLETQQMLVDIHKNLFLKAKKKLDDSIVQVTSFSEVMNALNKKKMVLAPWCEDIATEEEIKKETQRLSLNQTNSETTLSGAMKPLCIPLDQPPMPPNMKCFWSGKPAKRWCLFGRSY

HsProRS = HsProRS (Homo sapiens, UniProt P07814); assay: TR-FRET ligand displacement assay with tracer MAT379 (CoraFluor-1-Halo and anti-His6 antibody formats); assay type: binding; design: made in house; host or cells: E. coli SoluBL-21; settings: for TR-FRET dose-response, normalized signal (SI Fig 11): individual replicates
Sequence of HsProRS (P07814 996-1512): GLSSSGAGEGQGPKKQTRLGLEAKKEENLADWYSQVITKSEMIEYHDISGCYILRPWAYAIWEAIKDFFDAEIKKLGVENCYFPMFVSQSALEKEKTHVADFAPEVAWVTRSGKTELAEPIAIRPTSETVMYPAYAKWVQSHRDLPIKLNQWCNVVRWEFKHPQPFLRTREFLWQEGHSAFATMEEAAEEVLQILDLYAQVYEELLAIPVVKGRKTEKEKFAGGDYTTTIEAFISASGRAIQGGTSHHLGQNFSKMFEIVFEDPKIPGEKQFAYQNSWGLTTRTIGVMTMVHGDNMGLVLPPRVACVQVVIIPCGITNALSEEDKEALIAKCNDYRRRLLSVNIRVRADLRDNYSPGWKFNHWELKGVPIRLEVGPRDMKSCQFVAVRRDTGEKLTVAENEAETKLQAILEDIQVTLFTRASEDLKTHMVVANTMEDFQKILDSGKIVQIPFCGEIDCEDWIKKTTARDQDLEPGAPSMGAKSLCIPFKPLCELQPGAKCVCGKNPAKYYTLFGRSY

CC(C)N(C(=O)Nc1nccnc1C(=O)NC1Cc2ccccc2C1)C(C)C [compound 5]
dose-response signal (normalized), SI Fig 8 (PfcProRS; Log[inhibitor] (M) -5.000): 1.47E-01 and 1.35E-01 and 1.83E-01 | dose-response signal (normalized), SI Fig 8 (PfcProRS; Log[inhibitor] (M) -5.301): 3.88E-01 and 4.48E-01 and 4.36E-01 | dose-response signal (normalized), SI Fig 8 (PfcProRS; Log[inhibitor] (M) -5.601): 7.44E-01 and 8.07E-01 and 7.69E-01 | dose-response signal (normalized), SI Fig 8 (PfcProRS; Log[inhibitor] (M) -5.904): 8.45E-01 and 8.57E-01 and 9.58E-01 | dose-response signal (normalized), SI Fig 8 (PfcProRS; Log[inhibitor] (M) -6.208): 8.74E-01 and 8.91E-01 and 9.30E-01 | dose-response signal (normalized), SI Fig 8 (PfcProRS; Log[inhibitor] (M) -6.509): 9.93E-01 and 1.13E+00 and 1.03E+00 | dose-response signal (normalized), SI Fig 8 (PfcProRS; Log[inhibitor] (M) -6.796): 1.01E+00 and 9.89E-01 and 1.13E+00 | dose-response signal (normalized), SI Fig 8 (PfcProRS; Log[inhibitor] (M) -7.108): 9.82E-01 and 9.95E-01 and 1.21E+00 | dose-response signal (normalized), SI Fig 8 (PfcProRS; Log[inhibitor] (M) -7.409): 1.20E+00 and 1.06E+00 and 1.08E+00 | dose-response signal (normalized), SI Fig 8 (PfcProRS; Log[inhibitor] (M) -7.710): 1.11E+00 (2×) and 1.12E+00 | dose-response signal (normalized), SI Fig 8 (PfcProRS; Log[inhibitor] (M) -8.000): 1.01E+00 and 1.06E+00 and 1.07E+00 | dose-response signal (normalized), SI Fig 8 (PfcProRS; Log[inhibitor] (M) -8.301): 9.64E-01 and 1.10E+00 and 1.14E+00 | dose-response signal (normalized), SI Fig 8 (PfcProRS; Log[inhibitor] (M) -8.602): 8.54E-01 and 1.04E+00 and 1.07E+00 | dose-response signal (normalized), SI Fig 8 (PfcProRS; Log[inhibitor] (M) -9.000): 9.25E-01 and 9.26E-01 and 1.03E+00 | dose-response signal (normalized), SI Fig 8 (PfcProRS; Log[inhibitor] (M) -9.301): 8.80E-01 and 9.99E-01 and 1.04E+00 | Kd (HsProRS; HsProRS - best Kd, SI Fig 16a, values on -log scale): 1020 nM | normalized TR-FRET ligand displacement signal, dose-response replicates (SI Fig 6) (HsProRS; Log[inhibitor] (M) -5.000): 8.71E-01 and 7.50E-01 and 6.79E-01 | TR-FRET dose-response, normalized signal (SI Fig 11) (HsProRS; Log[inhibitor] (M) -5.000): 6.19E-01 and 6.48E-01 and 6.40E-01 | normalized TR-FRET ligand displacement signal, dose-response replicates (SI Fig 6) (HsProRS; Log[inhibitor] (M) -5.301): 9.58E-01 and 7.89E-01 and 8.27E-01 | TR-FRET dose-response, normalized signal (SI Fig 11) (HsProRS; Log[inhibitor] (M) -5.301): 7.58E-01 and 7.59E-01 and 7.76E-01 | normalized TR-FRET ligand displacement signal, dose-response replicates (SI Fig 6) (HsProRS; Log[inhibitor] (M) -5.601): 8.37E-01 and 1.05E+00 and 1.03E+00 | TR-FRET dose-response, normalized signal (SI Fig 11) (HsProRS; Log[inhibitor] (M) -5.601): 8.37E-01 and 8.60E-01 and 8.59E-01 | normalized TR-FRET ligand displacement signal, dose-response replicates (SI Fig 6) (HsProRS; Log[inhibitor] (M) -5.904): 1.09E+00 and 1.03E+00 and 9.64E-01 | TR-FRET dose-response, normalized signal (SI Fig 11) (HsProRS; Log[inhibitor] (M) -5.904): 9.61E-01 and 8.97E-01 and 9.02E-01 | normalized TR-FRET ligand displacement signal, dose-response replicates (SI Fig 6) (HsProRS; Log[inhibitor] (M) -6.208): 9.53E-01 and 8.96E-01 and 9.38E-01 | TR-FRET dose-response, normalized signal (SI Fig 11) (HsProRS; Log[inhibitor] (M) -6.208): 9.36E-01 and 9.49E-01 and 9.17E-01 | normalized TR-FRET ligand displacement signal, dose-response replicates (SI Fig 6) (HsProRS; Log[inhibitor] (M) -6.509): 9.42E-01 and 9.99E-01 and 1.01E+00 | TR-FRET dose-response, normalized signal (SI Fig 11) (HsProRS; Log[inhibitor] (M) -6.509): 8.96E-01 and 8.83E-01 and 9.32E-01 | normalized TR-FRET ligand displacement signal, dose-response replicates (SI Fig 6) (HsProRS; Log[inhibitor] (M) -6.796): 1.20E+00 (2×) and 1.11E+00 | TR-FRET dose-response, normalized signal (SI Fig 11) (HsProRS; Log[inhibitor] (M) -6.796): 9.19E-01 and 9.16E-01 and 9.35E-01 | normalized TR-FRET ligand displacement signal, dose-response replicates (SI Fig 6) (HsProRS; Log[inhibitor] (M) -7.108): 9.92E-01 and 1.02E+00 and 1.18E+00 | TR-FRET dose-response, normalized signal (SI Fig 11) (HsProRS; Log[inhibitor] (M) -7.108): 9.11E-01 and 9.16E-01 and 8.81E-01 | normalized TR-FRET ligand displacement signal, dose-response replicates (SI Fig 6) (HsProRS; Log[inhibitor] (M) -7.409): 8.86E-01 and 9.18E-01 and 1.10E+00 | TR-FRET dose-response, normalized signal (SI Fig 11) (HsProRS; Log[inhibitor] (M) -7.409): 9.21E-01 and 9.28E-01 and 9.54E-01 | normalized TR-FRET ligand displacement signal, dose-response replicates (SI Fig 6) (HsProRS; Log[inhibitor] (M) -7.710): 1.00E+00 and 9.56E-01 and 9.99E-01 | TR-FRET dose-response, normalized signal (SI Fig 11) (HsProRS; Log[inhibitor] (M) -7.710): 9.54E-01 and 9.03E-01 and 9.47E-01 | normalized TR-FRET ligand displacement signal, dose-response replicates (SI Fig 6) (HsProRS; Log[inhibitor] (M) -8.000): 1.08E+00 and 9.18E-01 and 9.67E-01 | TR-FRET dose-response, normalized signal (SI Fig 11) (HsProRS; Log[inhibitor] (M) -8.000): 9.82E-01 and 9.20E-01 and 9.02E-01 | normalized TR-FRET ligand displacement signal, dose-response replicates (SI Fig 6) (HsProRS; Log[inhibitor] (M) -8.301): 9.61E-01 and 8.84E-01 and 1.00E+00 | TR-FRET dose-response, normalized signal (SI Fig 11) (HsProRS; Log[inhibitor] (M) -8.301): 9.50E-01 and 9.79E-01 and 9.60E-01 | normalized TR-FRET ligand displacement signal, dose-response replicates (SI Fig 6) (HsProRS; Log[inhibitor] (M) -8.602): 9.71E-01 and 1.01E+00 and 8.97E-01 | TR-FRET dose-response, normalized signal (SI Fig 11) (HsProRS; Log[inhibitor] (M) -8.602): 9.46E-01 and 9.17E-01 and 9.64E-01 | normalized TR-FRET ligand displacement signal, dose-response replicates (SI Fig 6) (HsProRS; Log[inhibitor] (M) -9.000): 9.83E-01 and 9.95E-01 and 9.23E-01 | TR-FRET dose-response, normalized signal (SI Fig 11) (HsProRS; Log[inhibitor] (M) -9.000): 9.65E-01 and 9.90E-01 and 9.18E-01 | normalized TR-FRET ligand displacement signal, dose-response replicates (SI Fig 6) (HsProRS; Log[inhibitor] (M) -9.301): 9.67E-01 and 9.33E-01 and 1.01E+00 | TR-FRET dose-response, normalized signal (SI Fig 11) (HsProRS; Log[inhibitor] (M) -9.301): 9.51E-01 and 9.69E-01 and 8.77E-01
